Results: patent US20110076293A1, “TRIPTOLIDE DERIVATIVES FOR MODULATION OF APOPTOSIS AND IMMUNOSUPPRESSION” (priority 2002, published 2011)
pIC50: −log10 of the molar value. Structures can show the parent of a compound that is named as a salt. Where two headings read alike, the source gives them in different places.

How the values were obtained:
in vitro = conditions: for half-life: human, plasma; for max. conversion at 48 hr in human plasma by HPLC: incomplete conversion to triptolide, 48 hr incubation
Procedure: (§1) Compounds of formula I, as shown in Table 1 above and in the Examples, were assayed for their capacity to induce apoptosis in cells from the Jurkat human T lymphocyte cell line, after incubation with pooled human serum for varying periods of time at 37° C. (see Example 19). An ester prodrug, triptolide-14-succinate, designated PG490-88, was included for comparison. The extent of conversion to triptolide after such incubation was also independently determined by HPLC analysis.
Prodrug conversions to triptolide as determined independently by HPLC are given in […].

[1] = test system: IL-2 production in Jurkat human T lymphocyte cells; test: IL-2 production assay for activity of compounds incubated with human serum; conditions: for pIC50: IL-2 production in Jurkat cells after incubation with pooled human serum for 48 hours at 37° C.; for Conversion (%): percent of the IC50 value produced by triptolide (PG490) in the same experiment, human serum 48 hours
Procedure: Several compounds of formula I were analyzed for their capacity to inhibit IL-2 production in Jurkat human T lymphocyte cells, after incubation with pooled human serum for 48 hours at 37° C. (see Example 20). An ester prodrug, triptolide-14-succinate, designated PG490-88, was included for comparison.
The IC50 values (column 1) are calculated directly from the data in each experiment. The % conversion values (column 2) are calculated as the percent of the IC50 value produced by triptolide, designated PG490, incubated in the same plasma (i.e. in the same experiment).
A. IL-2 production assay for activity of compounds incubated with human serum. Test samples were diluted to 1 mM in complete tissue culture medium. […] Cells from an exponentially expanding culture of the Jurkat human T lymphocyte cell line (#TIB-152 obtained from American Type Culture Collection, Manassas, Va.) were harvested, washed once by centrifugation and dilution in complete tissue culture medium, and diluted to a concentration of 2×10^6 cells/ml. A volume of 50 μl of Jurkat cells (1×10^5 cells) was added to wells containing 100 μl of the diluted compounds, 50 μl of PMA (10 ng/ml) was added to each well, and the plates were incubated at 37° C. in a 5% CO2 incubator. After 24 hours, the plates were centrifuged to pellet the cells, 150 μl of supernatant was removed from each well, and the samples were stored at −20° C. The stored supernatants were analyzed for human IL-2 concentration using the Luminex 100 (Luminex Corporation, Austin, Tex.), Luminex microspheres coupled with anti-IL-2 capture antibody, and fluorochrome-coupled anti-IL-2 detection antibody. The data were expressed as ng/ml of IL-2.
(§2) B. Comparison of bioactivities after incubation of compounds in human serum. The data were plotted as the concentration of compound incubated in serum versus IL-2 concentration. The concentration of compound inducing a 50% decrease in the IL-2 concentration (IC50) was calculated from these dose response curves. […] This percentage conversion was used to compare the bioactivity of various compounds after incubation in human serum.

[2] = test system: Jurkat human T lymphocyte cell line; test: Apoptosis assay (Annexin V) of compounds incubated with human serum
Procedure: as §1
The ED50 values (column 3) are calculated directly from the data in each experiment, and the % conversion values (column 4) are calculated as percent of the ED50 value produced by triptolide, designated PG490, incubated in the same plasma (i.e. in the same experiment).
A. Incubation of compounds with human serum. Pooled human serum was stored in aliquots at −80° C. Test compounds were added at 20 mM to thawed human serum in 1.5 ml microfuge tubes and incubated at 37° C. in a water bath for varying periods of time. The test samples were placed on ice until dilution for the bioassay. Controls consisted of the compounds incubated in complete tissue culture medium (RPMI 1640 medium plus 5% heat-inactivated fetal calf serum, 1% HEPES, 1% pen/strep, 1% glutamine) rather than human serum.
B. Apoptosis assay of compounds incubated with human serum. Test samples were diluted to 1 mM in complete tissue culture medium. Aliquots were placed in microculture plates and serial dilutions were prepared so that the final concentration would encompass the range of 1 to 10,000 nM with half-log increments. Cells from an exponentially expanding culture of the Jurkat human T lymphocyte cell line (#TIB-152 obtained from American Type Culture Collection, Manassas, Va.) were harvested, washed once by centrifugation and dilution in complete tissue culture medium, and diluted to a concentration of 1×10^6 cells/ml. A volume of 100 μl of Jurkat cells (1×10^5 cells) was added to wells containing 100 μl of the diluted compounds, and the plates were incubated at 37° C. in a 5% CO2 incubator. After 24 hours, the plates were centrifuged to pellet the cells, and the cells were washed twice with 2% heat-inactivated fetal calf serum in PBS. To each well, 500 ul of binding buffer was added according to the Annexin V assay procedure (BioVision, Inc., Mountain View, Calif.). Next, 5 μl of the fluorescein isothiocyanate (FITC) conjugate of Annexin V (BioVision, Inc.) was added to each well, followed by 5 minutes of incubation in the dark. In some assays, propidium iodide (BioVision, Inc.) was added at this stage to check for necrotic cells. The contents of the wells were individually transferred into test tubes, and apoptosis was analyzed using a FACSCalibur flow cytometer (BD Immunocytometry Systems, San Jose, Calif.). Cells positive for Annexin V binding were considered to be apoptotic, and the data were calculated as percent apoptotic cells.
as §2, with “C.” for “B.”, “percent apoptotic cells.” for “IL-2 concentration.”, “inducing” for “inducing a”, “apoptosis (ED50)” for “decrease in the IL-2 concentration (IC50)”

[3] = Homo sapiens, Jurkat, 48 h, read-out: ED50 (nM) in apoptosis assay after incubation with serum, incubation time in human serum 48 hours, 37° C.
[4] = incubation time in human serum 1 hour
[5] = incubation time in human serum 48 hours

Compound | half-life (in vitro) | pIC50 [1] | Conversion (%) [1] | EC50 ([2]; Homo sapiens, Jurkat, 1 h, read-out: ED50 (nM) in apoptosis assay after incubation with serum, incubation time in human serum 1 hour, 37° C.) | EC50 [2, 3] | Conversion, as relative ED50 compared to triptolide (%) [2, 4] | Conversion, as relative ED50 compared to triptolide (%) [2, 5] | EC50 ([2]; read-out: ED50 (nM) in apoptosis assay after incubation with serum, incubation time in human serum 1 hour, 37° C.) | pIC50 ([1]; Homo sapiens, Jurkat, 48 h) | max. conversion at 48 hr in human plasma by HPLC (in vitro)
CC(C)[C@]12O[C@H]1[C@@H]1O[C@]13[C@]1(O[C@H]1C[C@H]1C4=C(CC[C@@]13C)C(=O)OC4)[C@@H]2OC(=O)OCCN(C)C [PG682, Triptolide 14-Dimethylaminoethyl Carbonate] | 17 min | 7.64 | 78% | 66 nM | 32 nM | 76% | 146% | – | – | –
CC(C)[C@]12O[C@H]1[C@@H]1O[C@]13[C@]1(O[C@H]1C[C@H]1C4=C(CC[C@@]13C)C(=O)OC4)[C@@H]2OC(=O)OCCN(C)C.Cc1ccc(S(=O)(=O)O)cc1 [PG682PTSA, p-Toluenesulfonate Salt of Triptolide 14-Dimethylaminoethyl Carbonate] | 17 min | 8.70 | 97% | – | – | 89% | – | 57 nM | – | –
CC(C)[C@]12O[C@H]1[C@@H]1O[C@]13[C@]1(O[C@H]1C[C@H]1C4=C(CC[C@@]13C)C(=O)OC4)[C@@H]2OC(=O)Oc1ccccc1 [PG676, Triptolide 14-Phenyl Carbonate] | 15 min | – | 84% | – | 56 nM | – | 96% | – | 8.22 | –
COC(=O)COC(=O)O[C@@H]1[C@@]2(C(C)C)O[C@H]2[C@@H]2O[C@]23[C@]12O[C@H]2C[C@H]1C2=C(CC[C@@]13C)C(=O)OC2 [PG680, Triptolide 14-Methoxycarbonylmethyl Carbonate] | 9 min | – | 44% | – | 58 nM | – | 85% | – | 8.52 | –
CC(C)[C@]12O[C@H]1[C@@H]1O[C@]13[C@]1(O[C@H]1C[C@H]1C4=C(CC[C@@]13C)C(=O)OC4)[C@@H]2OC(=O)OCC(=O)O [PG687tris, Tris(hydroxymethyl)aminomethane Salt of Triptolide 14-Hydroxycarbonyl-methyl Carbonate] | – | – | 6% | – | 960 nM | – | 6% | – | 7.54 | max. 10% at
CC(C)[C@]12O[C@H]1[C@@H]1O[C@]13[C@]1(O[C@H]1C[C@H]1C4=C(CC[C@@]13C)C(=O)OC4)[C@@H]2OC(=O)OCC(=O)O [PG687, Triptolide 14-Hydroxycarbonylmethyl Carbonate] | – | – | 2% | – | – | – | 6% | – | 7.21 | 10%
